Measurements: US9050344B2, “Therapeutic compounds” (Gilead Sciences, Inc., priority 2013, dated 2015)

Tests used:
MT-4 cells = assay: Test B: Cytotoxicity Assay (protocol of Test A, uninfected cells); format: cell-based; conditions: uninfected MT-4 cells, 5 days, CellTiter-Glo
Experimental: (§1) Test B: Cytotoxicity Assay Compound cytotoxicity and the corresponding CC50 values was determined using the same protocol as described in the antiviral assay (Test A) except that uninfected cells were used.

HIV-IIIb = assay: Test A: Antiviral Assay in MT4 Cells; format: cell-based, HIV-1; conditions: Human immunodeficiency virus 1, IIIB, MT4, 120 h, read-out: % inhibition at 3 μM
Experimental: Test A: Antiviral Assay in MT4 Cells
For the antiviral assay, 40 μL of 1× test concentration of 3-fold serially diluted compound in culture medium with 10% FBS was added to each well of a 384-well plate (10 concentrations) in quadruplicate. MT-4 cells were next mixed with HIV-IIIb at an m.o.i of 0.003 for 1 hour, after which time 35 μL of virus/cell mixture (2000 cells) was immediately added to each well containing 40 μL of diluted compound. The plates were then incubated at 37° C. for 5 days. After 5 days of incubation, 25 μl of 2× concentrated CellTiter-Glo™ Reagent (catalog #G7571, Promega Biosciences, Inc., Madison, Wis.) was added to each well containing MT-4 cells. Cell lysis was carried out by incubating at room temperature for 10 min and then chemiluminescence was read.

[1] = Test B: Cytotoxicity Assay (protocol of Test A, uninfected cells); format: cell-based; conditions: human, uninfected MT-4 cells, CellTiter-Glo
Experimental: as §1

Question: With CC(=O)Oc1ccc(-c2ccc(F)c(C(N)=O)c2)c([C@H](Cc2cc(F)cc(F)c2)NC(=O)Cn2nc(C(F)F)c3c2C(F)(F)CCC3(F)F)n1 [Compound 20B, (S)-5-(3-carbamoyl-4-fluorophenyl)-6-(1-(2-(3-(difluoromethyl)-4,4,7,7-tetrafluoro-4,5,6,7-tetrahydro-1H-indazol-1-yl)acetamido)-2-(3,5-difluorophenyl)ethyl)pyridin-2-yl acetate] as the compound, how does the CC50 (MT-4 cells) read?
Answer: > 53.2 µM

Question: Which inhibition at 3 µM (HIV-IIIb) does the source give for CN1CCN(c2ccc(-c3ccc(Cl)c4c(NS(C)(=O)=O)nn(C)c34)c([C@H](Cc3cc(F)cc(F)c3)NC(=O)Cn3nc(C(F)(F)F)c4c3C(F)(F)[C@@H]3C[C@H]43)n2)CC1 [Compound 60C, N—((S)-1-(3-(4-chloro-1-methyl-3-(methylsulfonamido)-1H-indazol-7-yl)-6-(4-methylpiperazin-1-yl)pyridin-2-yl)-2-(3,5-difluorophenyl)ethyl)-2-((3bS,4aR)-5,5-difluoro-3-(trifluoromethyl)-3b,4,4a,5-tetrahydro-1H-cyclopropa[3,4]cyclopenta[1,2-c]pyrazol-1-yl)acetamide] here?
Answer: 90%

Question: What about the CC50 at 5 days [1] of the same compound?
Answer: 9.11 µM

Question: Which inhibition at 3 µM (HIV-IIIb) does the source give for Cn1nc(NS(C)(=O)=O)c2cccc(-c3nc(N)cnc3C(Cc3cc(F)cc(F)c3)NC(=O)Cn3nc(C(F)F)c4c3C(F)(F)[C@@H]3C[C@H]43)c21 (stereo partly drawn) [Compound 61, N-(1-(5-amino-3-(1-methyl-3-(methylsulfonamido)-1H-indazol-7-yl)pyrazin-2-yl)-2-(3,5-difluorophenyl)ethyl)-2-((3bS,4aR)-3-(difluoromethyl)-5,5-difluoro-3b,4,4a,5-tetrahydro-1H-cyclopropa[3,4]cyclopenta[1,2-c]pyrazol-1-yl)acetamide] here?
Answer: 75%

Question: What about the CC50 at 5 days [1] of the same compound?
Answer: > 53.2 µM
